Data taken from patent US9132131B2, “Use of adenosine A3 receptor agonists for treatment of neuropathic pain” (Saint Louis University, priority 2011, dated 2015).

Key:
[1] = system: paclitaxel-induced neuropathic pain; assay: Paclitaxel-induced neuropathic pain (mechano-allodynia, mechano-hyperalgesia); type: in vivo, rats
[2] = system: oxaliplatin-induced neuropathic pain; assay: Oxaliplatin-induced neuropathic pain (mechano-allodynia, mechano-hyperalgesia); type: in vivo, rats
[3] = system: acute nociception (hot plate latency); assay: Hot plate assay for acute nociception; type: in vivo, mice; conditions: 0.5 μmol/kg
Procedure: Tail flick and hot plate assay in mice for acute nociception. The tail flick test, which measures latency(s) of tail withdrawal from a noxious radiant heat source (Ugo Basile; model number 37360) was used to measure thermal nociceptive sensitivity in mice with baseline latencies of 3-5 seconds and a cut-off time of 15 seconds to prevent tissue injury. Tail flick latencies were taken before and at 30, 60 and 120 minutes after i.p. injection of IB-MECA, MRS1898 (0.5 μmol/kg) or its vehicle (0.1% DMSO in saline). For the hot plate test, nociceptive thresholds were determined as previously reported by our group by measuring latencies (in seconds) of mice placed in a transparent glass cylinder on a hot plate maintained at 52° C.. Responses indicative of nociception included intermittent lifting and/or licking of the hindpaws or escape behavior. Hot plate latencies were taken in mice from all groups before and after drug administration. A cut-off latency of 15 seconds was employed to prevent tissue damage.

[4] = system: motor function (Rotarod latency); assay: Rotarod test; type: in vivo, mice; conditions: 0.5 μmol/kg i.p., 30, 60, 120 minutes
Procedure: Rotarod test in mice: Mice were trained before experimentation for their ability to remain for 60 seconds on a revolving Rotarod for mice apparatus (Ugo Basile; accelerating units increasing from 5 to 40 rpm in 60 sec). Mice were injected i.p. with IB-MECA, MRS1898 (0.5 μmol/kg) or vehicle (0.1% DMSO in saline) and then examined at 30, 60 and 120 minutes after administration for motor impairments on the Rotarod. The latency time to fall off the Rotarod was determined with a cut-off time of 120 seconds.

[5] = system: SKBR3 breast cancer cells; assay: MTT cell survival assay, SKBR3; type: cell-based, human
Procedure: Cells were cultured and assayed in DMEM (SKBR3; human breast cancer cells), L15 (SW480; human colon cancer cells) or RPMI […] (RPMI 8226; human multiple myeloma cells) supplemented with heat-denatured 10% FBS and penicillin/streptomycin at 37° C., 0% (SW480) or 5% CO2 (SKBR3 and RPMI 8226), 95% humidity. The antitumor activities of these agents were measured in cells (6.25×10^4 cells/well) cultured overnight in 24-well plates (SKBR3 and SW480; BD Biosciences) or 12 mm×7.5 mm culture tubes (RPMI 8226; BD Biosciences) in complete media. […] Two naïve control wells were included as a control for 100% survival. Cell survival was determined using a MTT (3-(4,5-dimethylthiazol-2-yl)-2,5-diphenyltetrazolium bromide) assay adapted from a previously described assay. Cells were incubated with MTT (500 μg/ml) for 75 minutes at 37° C., 0% or 5% CO2, 95% humidity, removing the media and dissolving the tetrazolium crystals in isopropanol. […] The antitumor effects of IB-MECA alone were determined as % Survivability=(A560-570 nm of chemotherapeutic vehicle+IB-MECA)/(mean A560-570 nm of the naïve control wells)×100. The LD50 of each chemotherapeutic agent+IB-MECA or its vehicle was calculated using three-parameter non-linear analysis using % Survivability=(A560-570 nm of chemotherapeutic+IB-MECA or its vehicle)/(mean A560-570 nm chemotherapeutic vehicle+vehicle of IB-MECA)×100. The top and bottom plateaus were constrained using GraphPad Prism v5.03 (GraphPad Software, Inc.).

CNC(=O)[C@H]1O[C@@H](n2cnc3c(NCc4cccc(I)c4)ncnc32)[C@H](O)[C@@H]1O [IB-MECA, N^6-(3-iodobenzyl)-adenosine-5′-N-methyluronamide]
effect on paclitaxel-induced neuropathic pain ([1]; 0.02-0.2 μmol/kg/d i.p. D0-D15): dose-dependently attenuated | effect on PWT when administered alone (vehicle groups) ([1]; IB-MECA 0.2 μmol/kg/d in any of the chemotherapy models, MRS1523 5 μmol/kg/d): did not affect PWT | neuropathic pain after discontinuation of treatment on D15 ([1]; paclitaxel model, followed through D25): did not emerge through D25 | D16 ED50, prevention of paclitaxel-induced mechano-allodynia ([1]; rats, daily i.p. D0-D15): 0.02 µmol/kg/day | D16 ED50, prevention of paclitaxel-induced mechano-hyperalgesia ([1]; rats, daily i.p. D0-D15): 0.03 µmol/kg/day | effect on development of oxaliplatin-induced neuropathic pain ([2]; 0.02-0.2 μmol/kg/d D0-D17): attenuated dose-dependently | neuropathic pain upon drug termination ([2]; oxaliplatin model, through D25): did not emerge upon drug termination | D17 ED50, prevention of oxaliplatin-induced mechano-allodynia ([2]; rats, daily D0-D17): 0.05 µmol/kg/day | D17 ED50, prevention of oxaliplatin-induced mechano-hyperalgesia ([2]; rats, daily D0-D17): 0.06 µmol/kg/day | effect on the hot plate [3]: had no effect | Rotarod deficits [4]: did not induce Rotarod deficits | effect on the antitumor effects of paclitaxel, oxaliplatin or bortezomib ([5]; IB-MECA 10 nM, human breast, colon and multiple myeloma cancer cells): did not diminish | decrease in cell survival when used alone ([5]; IB-MECA 10 nM, stated for the cell lines tested (SKBR3, SW480, RPMI 8226)): < 20% | effect of higher doses on the cell lines ([5]; doses above 10 nM, all three cell lines): direct antitumor effects
